IC50 data for 52 compounds are collected here from patent US11787780B2 (CORCEPT THERAPEUTICS INCORPORATED, priority 2020, dated 2023).

Molecules are shown by their SMILES.

Sequence of glucocorticoid receptor (GR) recombinant ligand binding domain (LBD) (P04150 524-758): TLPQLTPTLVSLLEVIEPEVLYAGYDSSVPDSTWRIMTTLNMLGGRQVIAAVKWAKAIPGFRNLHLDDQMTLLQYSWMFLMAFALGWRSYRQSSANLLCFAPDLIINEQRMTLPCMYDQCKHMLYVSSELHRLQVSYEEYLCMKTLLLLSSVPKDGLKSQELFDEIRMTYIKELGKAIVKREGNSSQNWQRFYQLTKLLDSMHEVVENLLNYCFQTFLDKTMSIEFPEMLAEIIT

The assay concerns the target glucocorticoid receptor (GR) recombinant ligand binding domain (LBD) (Homo sapiens (Human), UniProt P04150). In words: GR binding fluorescence polarisation (FP) assay. The settings on record: displacement of fluorescently tagged ligand. As to the method:
Binding of test compounds to the glucocorticoid receptor (GR) is determined using a fluorescence polarisation (FP) assay utilising a recombinant ligand binding domain (LBD) of GR. The test compounds are assessed by their ability to displace a fluorescently tagged ligand and detection of the resulting decrease in fluorescence polarisation.
(In general: In fluorescence polarisation assays a small probe gives low polarisation when free and higher when bound to something large.)
A word on the IC50: it is the midpoint of a concentration-inhibition curve. On to `C[C@@H]1CN(S(=O)(=O)C2CCCC2)CCN1c1ccc2c(cnn2-c2ccc(F)cc2)c1` [Example 35], for which the IC50 was 1810 nM.
Take `C[C@@H]1CN(c2ccc3c(cnn3-c3ccc(F)cc3)c2)CCN1S(=O)(=O)c1cnn(C2CCOCC2)c1` [Example 53]: the IC50 stood at 244 nM.
The value for `CCCn1cc(S(=O)(=O)N2CCC(C(=O)N3CCCC3)(c3cc4cnn(-c5ccc(F)cc5)c4cc3C)CC2)cn1` [Example 22, (4-(1-(4-fluorophenyl)-6-methyl-1H-indazol-5-yl)-1-((1-propyl-1H-pyrazol-4-yl)sulfonyl)piperidin-4-yl)(pyrrolidin-1-yl)methanone] was 857 nM; that for `CCCn1cc(S(=O)(=O)N2CCCC23CCN(c2cc4cnn(-c5ccc(F)cc5)c4cc2C)CC3)cn1` [Example 89] was 434 nM; that for `CCCn1cc(S(=O)(=O)N2CCN(c3ccc4c(cnn4-c4ccc(F)cc4)c3)C3(CC3)C2)cn1` [Example 3, 1-(4-fluorophenyl)-5-(7-((1-propyl-1H-pyrazol-4-yl)sulfonyl)-4,7-diazaspiro[2.5]octan-4-yl)-1H-indazole] was 206 nM.
The value for `Cc1cc2c(cnn2-c2ccc(F)cc2)cc1N1CC[C@H](N(C)S(C)(=O)=O)C1` [Example 112] was 249 nM; that for `CCCn1cc(S(=O)(=O)N2CCC(c3ccc4c(cnn4-c4ccc(F)cc4)c3)CC2)cn1` [Example 135] was 473 nM.
For `CCCn1cc(S(=O)(=O)N2CC[C@@H](c3cc4cnn(-c5ccc(F)cc5)c4cc3C)C[C@H]2C)cn1` [Example 12, 1-(4-fluorophenyl)-6-methyl-5-((2R,4R)-2-methyl-1-((1-propyl-1H-pyrazol-4-yl)sulfonyl)piperidin-4-yl)-1H-indazole] the value was 236 nM; for `CCCn1cc(S(=O)(=O)N(C)[C@H]2CCCN(c3cc4cnn(-c5ccc(F)cc5)c4cc3C)C2)cn1` [Example 125], 208 nM.
On to `CCCn1cc(S(=O)(=O)N2CCN(c3ccc4c(cnn4-c4ccc(F)cc4)c3)CC2(C)C)cn1` [Example 46], for which the IC50 came out at 1130 nM.
The value for `CC1(C)CN(c2ccc3c(cnn3-c3ccc(F)cc3)c2)CCN1S(C)(=O)=O` [Example 45] was 562 nM.
In the case of `CCCn1cc(S(=O)(=O)N(C)C2CCCN(c3cc4cnn(-c5ccc(F)cc5)c4cc3C)C2)cn1` (stereo not shown) [Example 128], the IC50 turned out to be 590 nM.
`C[C@H]1CN(c2ccc3c(cnn3-c3ccc(F)cc3)c2)CCN1S(=O)(=O)c1cnn(C)c1` [Example 38]: the IC50 amounted to 1950 nM.
In the case of `Cc1cc2c(cnn2-c2ccc(F)cc2)cc1N1CCC2(CCCN2S(C)(=O)=O)CC1` [Example 88], the IC50 is 7230 nM.
The value for `Cc1cc2c(cnn2-c2ccc(F)cc2)cc1N1CC[C@H](NS(=O)(=O)c2cnn(C)c2)C1` [Example 111] was 3 nM; that for `COC(=O)C1CN(c2ccc3c(cnn3-c3ccc(F)cc3)c2)CCN1S(=O)(=O)c1cnn(CC2CC2)c1` (stereo not shown) [Example 52] was 700 nM; that for `C[C@@H]1CN(c2ccc3c(cnn3-c3ccc(F)cc3)c2)CCN1S(=O)(=O)c1ccc(F)c(F)c1` [Example 40] was 546 nM.
For `CCCn1cc(S(=O)(=O)N2CC[C@H](c3cc4cnn(-c5ccc(F)cc5)c4cc3C)C[C@H]2C)cn1` [Example 13, 1-(4-fluorophenyl)-6-methyl-5-((2R,4S)-2-methyl-1-((1-propyl-1H-pyrazol-4-yl)sulfonyl)piperidin-4-yl)-1H-indazole] the value was 82 nM; for `CCCn1cc(S(=O)(=O)N(C)[C@H]2CCN(c3cc4cnn(-c5ccc(F)cc5)c4cc3C)C2)cn1` [Example 5, (S)—N-(1-(1-(4-fluorophenyl)-6-methyl-1H-indazol-5-yl)pyrrolidin-3-yl)-N-methyl-1-propyl-1H-pyrazole-4-sulfonamide], 126 nM; for `O=S(=O)(c1cnn(CC2CC2)c1)N1CCN(c2ccc3c(cnn3-c3ccc(F)cc3)c2)C[C@H]1CO` [Example 14, (S)-(1-((1-(cyclopropylmethyl)-1H-pyrazol-4-yl)sulfonyl)-4-(1-(4-fluorophenyl)-1H-indazol-5-yl)piperazin-2-yl)methanol], 357 nM.
For `CCCn1cc(S(=O)(=O)N2CCC(C(=O)OCC)(c3ccc4c(cnn4-c4ccc(F)cc4)c3)CC2)cn1` [Example 21, Ethyl 4-(1-(4-fluorophenyl)-1H-indazol-5-yl)-1-((1-propyl-1H-pyrazol-4-yl)sulfonyl)piperidine-4-carboxylate] the value was 884 nM; for `Cc1nn(C2CCCC2)cc1S(=O)(=O)N1CCN(c2ccc3c(cnn3-c3ccc(F)cc3)c2)C[C@H]1C` [Example 54], 142 nM; for `CCCn1cc(S(=O)(=O)N2CC[C@@H](c3ccc4c(cnn4-c4ccc(F)cc4)c3)C[C@H]2C)cn1` [Example 9, 1-(4-fluorophenyl)-5-((2R,4R)-2-methyl-1-((1-propyl-1H-pyrazol-4-yl)sulfonyl)piperidin-4-yl)-1H-indazole], 527 nM.
Regarding `C[C@H]1CN(S(=O)(=O)c2cnn(C)c2)CCN1c1ccc2c(cnn2-c2ccc(F)cc2)c1` [Example 36], the IC50 was 3550 nM.
The value for `CCCn1cc(S(=O)(=O)N(C)C2CCN(c3cc4cnn(-c5ccc(F)cc5)c4cc3C)CC2)cn1` [Example 117] was 57 nM; that for `CCCn1cc(S(=O)(=O)N[C@H]2CCN(c3cc4cnn(-c5ccc(F)cc5)c4cc3C)C2)cn1` [Example 4, (S)—N-(1-(1-(4-fluorophenyl)-6-methyl-1H-indazol-5-yl)pyrrolidin-3-yl)-1-propyl-1H-pyrazole-4-sulfonamide] was 2 nM; that for `Cc1cc2c(cnn2-c2ccc(F)cc2)cc1N1CCN(C(=O)Nc2ccccc2)C2(CC2)C1` [Example 102] was 267 nM.
For `Cc1cc2c(cnn2-c2ccc(F)cc2)cc1N1CC[C@@H](N(C)S(C)(=O)=O)C1` [Example 113] the value was 52 nM; for `CCCn1cc(S(=O)(=O)N2C[C@H](C)N(c3ccc4c(cnn4-c4ccc(F)cc4)c3)C[C@H]2C)cn1` [Example 55], 21 nM; for `CS(=O)(=O)N[C@H]1CCN(c2ccc3c(cnn3-c3ccc(F)cc3)c2)C1` [Example 105], 320 nM.
For `CCCn1cc(S(=O)(=O)N2CCN(c3cc4cnn(-c5ccc(OC)cc5)c4cc3C)C[C@H]2C)cn1` [Example 75] the value was 325 nM; for `CCCn1cc(S(=O)(=O)N2CC=C(c3cc4cnn(-c5ccc(F)cc5)c4cc3C)CC2)cn1` [Example 139], 218 nM; for `CCCn1cc(S(=O)(=O)N2CCN(c3cnc4c(cnn4-c4ccc(F)cc4)c3)CC23CC3)cn1` [Example 71], 238 nM.
As to `Cc1cc2c(cnn2-c2ccc(F)cc2)cc1N1CC[C@@H](NS(C)(=O)=O)C1` [Example 109], the IC50 was determined as 48 nM.
Regarding `Cc1cc2c(cnn2-c2ccc(F)cc2)cc1N1CCC2(CCN(S(C)(=O)=O)CC2)C1` [Example 95], the IC50 is 612 nM.
For `Cn1cc(S(=O)(=O)N2CCN(c3ccc4c(cnn4-c4ccc(F)cc4)c3)C[C@H]2Cc2ccccc2)cn1` [Example 41] the value was 937 nM; for `CS(=O)(=O)N1CC2CC(C1)N2c1ccc2c(cnn2-c2ccc(F)cc2)c1` [Example 48], 4050 nM; for `CCCn1cc(S(=O)(=O)N2CCN(c3ccc4c(cnn4-c4ccc(F)cc4)c3)CC23CCC3)cn1` [Example 66], 429 nM.
The value for `COC[C@@H]1CN(c2ccc3c(cnn3-c3ccc(F)cc3)c2)CCN1S(=O)(=O)c1cnn(CC2CC2)c1` [Example 15, (S)-5-(4-((1-(cyclopropylmethyl)-1H-pyrazol-4-yl)sulfonyl)-3-(methoxymethyl)piperazin-1-yl)-1-(4-fluorophenyl)-1H-indazole] was 455 nM.
For `Cn1cc(S(=O)(=O)C2CCN(c3ccc4c(cnn4-c4ccc(F)cc4)c3)CC2)cn1` [Example 33, 1-(4-fluorophenyl)-5-(4-((1-methyl-1H-pyrazol-4-yl)sulfonyl)piperidin-1-yl)-1H-indazole] the value was 67 nM; for `Cn1cc(S(=O)(=O)N2CCN(c3ccc4c(cnn4-c4ccc(F)cc4)c3)[C@H](Cc3ccccc3)C2)cn1` [Example 34], 1100 nM.
Take `CCCn1cc(S(=O)(=O)N2CCN(c3ccc4c(cnn4-c4ccc(F)cc4)c3C)C[C@H]2C)cn1` [Example 49]: the IC50 is 8220 nM.
For `Cc1cc2c(cnn2-c2ccc(F)cc2)cc1N1CCN(S(C)(=O)=O)CC1=O` [Example 7, 1-(1-(4-fluorophenyl)-6-methyl-1H-indazol-5-yl)-4-(methylsulfonyl)piperazin-2-one] the value was 6110 nM; for `Cc1cc2c(cnn2-c2ccc(F)cc2)cc1N1CC[C@H](N(C)S(=O)(=O)c2cnn(C)c2)C1` [Example 114], 304 nM; for `Cc1cc2c(cnn2-c2ccc(F)cc2)cc1N1CCC2(CCN(S(=O)(=O)c3cnn(C)c3)CC2)C1` [Example 96], 2560 nM.
The value for `CCCn1cc(S(=O)(=O)N2CCN(c3cc4nnn(-c5ccc(F)cc5)c4cc3C)CC23CC3)cn1` [Example 74] was 66 nM.
The value for `CCCn1cc(S(=O)(=O)N2CCN(c3cc4cnn(-c5ccc(F)cc5)c4cn3)CC23CC3)cn1` [Example 69] was 1160 nM; that for `C[C@@H]1CN(S(C)(=O)=O)[C@H](C)CN1c1ccc2c(cnn2-c2ccc(F)cc2)c1` [Example 62] was 431 nM; that for `Cc1cc2c(cnn2-c2ccc(F)cc2)cc1C1=CCN(S(C)(=O)=O)CC1` [Example 138] was 101 nM.
For the compound `CCCS(=O)(=O)N1CCN(c2ccc3c(cnn3-c3ccc(F)cc3)c2)C[C@H]1C` [Example 104, (R)-1-(4-fluorophenyl)-5-(3-methyl-4-(propylsulfonyl)piperazin-1-yl)-1H-indazole], the half-inhibitory concentration (IC50) turned out to be 270 nM.
The value for `Cc1cc2c(cnn2-c2ccc(F)cc2)cc1N1CCCC(N(C)S(=O)(=O)c2cnn(C)c2)C1` (stereo not shown) [Example 127] was 174 nM.
The value for `Cc1cc2c(cnn2-c2ccc(F)cc2)cc1N1CC[C@H](NS(C)(=O)=O)C1` [Example 108] was 7 nM.
